Consider 3 compounds from patent publication US9107879B1, “Methods of increasing the cytotoxicity of chemotherapeutic agents with multisubstrate inhibitors of histone, protein-lys, polyamine acetylation, and polyamine metabolism” (Vanderbilt University, priority 2010, dated 2015).

Molecules are shown by their SMILES.

As a reminder, the Ki is a measure of affinity in units of concentration, obtained from inhibition or displacement. Broadly, the IC50 is the concentration that gives 50% inhibition.

In data set [1] the target is T1, recombinant p300 (1284-1660) (Homo sapiens, UniProt Q09472).
T1 construct: p300 protein (residues 1284-1660); made in house
T1 sequence (Q09472 1284-1660): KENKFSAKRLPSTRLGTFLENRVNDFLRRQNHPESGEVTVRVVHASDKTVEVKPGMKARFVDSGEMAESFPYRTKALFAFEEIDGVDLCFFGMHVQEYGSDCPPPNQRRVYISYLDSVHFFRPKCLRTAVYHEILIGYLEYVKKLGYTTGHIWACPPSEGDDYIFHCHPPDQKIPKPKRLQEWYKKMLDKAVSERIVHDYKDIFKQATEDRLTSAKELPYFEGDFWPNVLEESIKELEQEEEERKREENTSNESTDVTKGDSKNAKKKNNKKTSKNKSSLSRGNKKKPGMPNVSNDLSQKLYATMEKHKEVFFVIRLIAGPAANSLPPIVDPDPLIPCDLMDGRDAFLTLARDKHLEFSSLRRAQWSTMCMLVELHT
As to the kind of experiment: p300 HAT solution assay, H4 peptide substrate, DTNB detection. It counts as biochemical. The method, then: (A) Structures of compound 1a (spermidine CoA), and the acetylated side chain of a lysine residue of a polypeptide chain. (B) Inhibition of p300 acetylating activity as a function of 1a concentration. The catalytic domain of recombinant p300 (1284-1660) was assayed under steady state conditions using an N-terminal acetylated histone H4 peptide substrate, Ac-H4(1-19)-NH2. Closed circles represent experimental data points; plain line represents theoretical profile based on data reduction software (Prism) using a one site inhibition model. (C) In vitro assay of p300 activity using a 96-well assay kit (ActivMotif) and an H3 peptide substrate (5-23), according to manufacturer's instructions. Bars represent average of duplicates. BK=background (no enzyme); C=control (no inhibitor); [1a]=50 μM.
Assays were performed using the fluorescent HAT assay kit (Active Motif, Carlsbad, Calif.), an H3 peptide as substrate (residues 5-23), the p300 catalytic domain as enzyme, and 50 μM inhibitor in duplicate, according to the manufacturer's instructions. […] The reaction product, CoASH, was detected spectrophotometrically by reaction with 5,5′-dithiobis-2-nitrobenzoic acid (DTNB). Assays were carried out at 30° C. for 30 minutes, conditions which had previously been determined in kinetic assays to sufficient to achieve steady state. […]

For data set [2] the following is noted: 5 mM, approximately 10 mg/kg, twice per week for 3 weeks. On the procedure: They injected a second set of 4 mice with 100 μl of spd-3a (5 mM, approximately 10 mg/kg, or about 0.25 mM initial blood concentration), twice per week for 3 weeks.
A further data set relates to MCF7 breast cancer cells. The following applies: 1a increasing concentrations; camptothecin 5 nM 18 hour. The method, then: (A) [^3H]-thymidine incorporation into DNA of H358 cells (left panel) or MCF-7 cells (right panel) during a 6 hour pulse ending at the indicated time points after initiation of treatment. Treatments were 50 μM 1a alone, 5 nM camptothecin alone (CPT, 18 hours), 50 μM 1a+5 nm CPT (18 hours). Control cells were left untreated. (B) 2-day 96-well viability assays of H358 cells (left panel) or MCF-7 cells (right panel) grown in presence of increasing concentrations of 1a (continuous), with or without an 18-hour treatment with 5 nM camptothecin (CPT). Cell viability, represented as a percent of untreated cell viability (i.e., no 1a, no CPT), was determined 2 days post-start of treatment by the MTS bioconversion assay (MTS=(3-(4,5′-dimethylthiazol-2-yl)-5-(3-carboxymethoxylphenyl-2-(4-sulfophenyl)-2H-tetrazolium salt). Each data point represents the average of triplicate wells. Assays were carried out under conditions such that untreated cells remained in exponential growth. (C) [^3H]-thymidine incorporation into DNA of H358 cells carried out as in part “A”. Treatment consisted of 1a alone (50 μM), or cisplatin (2 μM, 1 hour, 15 minutes) alone or together with 1a (Panel 1); or UVC (40 J/m^2), alone or together with 1a (Panel 2); or 5-fluorouracil (5FU, 2 μM, 18 hours) alone or together with 1a (Panel 3), or Taxotere™ (5 nM, 18 hours), alone or together with 1a (Panel 4). Control cells were left untreated. Symbols are as follows: (-◯-) untreated control; (-●-) 50 μM 1a, (-∇-) drug or UVC alone; (-▾-) combination 1a+drug or UVC.
Viability was measured 3 days after the start of treatment and is expressed as a percentage of control (untreated) cell viability.
Each point is average of triplicates.
Date of exp: 7-17-2010; located p.21 in Hat notebook: KB-2 (2010-2011).
Cells were plated in 96-well plates (3000 cells per well) and incubated 18 hours with or without 5 nM camptothecin (Sigma, St Louis, Mo.). Triplicate wells were then treated with varying doses of 1a (from 0-50 μM). Control cells received neither 1a nor camptothecin. 2-day viability was determined by the MTS assay as previously (Saadatmandi et al., 2002, Cancer Gene Therapy, 9: 830-9) and expressed as a percentage of control cell viability.
The present inventors carried out 96-well viability assays as we have previously described (Saadatmandi et al, Cancer Gene Therapy (2002) 9:830-9), in which MCF7 breast cancer cells were plated at 3000 cells per well. After overnight attachment, triplicate wells were treated with increasing doses of inhibitor 1a. Control wells were left untreated. After 3 days, cell viability was measured by the MTS assay, which measures the bioconversion of an uncolored substrate to a colored formazan derivative, and is proportional to cell number. […]

`CC(C)(COP(=O)(O)OP(=O)(O)OC[C@H]1O[C@@H](n2cnc3c(N)ncnc32)[C@H](O)[C@@H]1OP(=O)(O)O)[C@@H](O)C(=O)NCCC(=O)NCCSCC(=O)NCCCNCCCCN` [1a, spermidine[N1]-CoA]: the Ki in data set [1] (from IC50=Ki(1+Km/S)≅Ki under substrate excess, read-out: estimated Ki for p300 fragment) was 50 to 100 µM. Further, the IC50 in data set [1] (histone H4 N-terminal peptide substrate, inferred from inhibitory plot, one site model, read-out: IC50, p300HAT catalytic subunit activity) lay within 50 to 100 µM.
In the case of `CC(=O)NCCSCC(=O)NCCCNCCCCN` [3a], the body weight result in data set [2] was “did not lose weight”. The signs of toxicity result in data set [2] (4 mice) was “no signs of distress or illness”.
Take `CC[C@@]1(O)C(=O)OCc2c1cc1n(c2=O)Cc2cc3ccccc3nc2-1` [camptothecin]: in the data set on MCF7 breast cancer cells, the “2-day cumulative cell viability relative to untreated, single agent” value was “no effect”.
